This test concerns the target T1, Aromatase (Homo sapiens, UniProt P11511).
T1 sequence (P11511 whole entry): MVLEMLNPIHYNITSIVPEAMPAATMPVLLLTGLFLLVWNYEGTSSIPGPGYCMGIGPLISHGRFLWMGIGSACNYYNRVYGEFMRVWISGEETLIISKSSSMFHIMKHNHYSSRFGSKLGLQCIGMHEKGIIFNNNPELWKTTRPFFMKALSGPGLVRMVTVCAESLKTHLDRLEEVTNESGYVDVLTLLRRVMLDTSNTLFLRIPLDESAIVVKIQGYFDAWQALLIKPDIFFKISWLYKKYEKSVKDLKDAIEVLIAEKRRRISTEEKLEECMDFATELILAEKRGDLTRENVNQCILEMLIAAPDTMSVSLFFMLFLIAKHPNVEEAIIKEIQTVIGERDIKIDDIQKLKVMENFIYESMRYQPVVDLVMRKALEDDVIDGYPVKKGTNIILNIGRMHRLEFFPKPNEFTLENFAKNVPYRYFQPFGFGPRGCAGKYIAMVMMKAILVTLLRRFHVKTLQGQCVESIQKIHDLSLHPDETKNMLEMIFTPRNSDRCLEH

The values below come from ChEMBL document CHEMBL4339204, “Synthesis of α-methylstilbenes using an aqueous Wittig methodology and application toward the development of potent human aromatase inhibitors” (Bioorg Med Chem Lett, 2019).

Description: Inhibition of recombinant human CYP19A1 using DBF as substrate measured after 1 hr by fluorescence assay

As a reminder, the Ki is a dissociation constant, usually derived from enzyme kinetics or from competition with a known ligand. Read a low Ki as higher affinity. Turning to `Clc1ccc(/C=C(\Cn2ccnn2)c2ccc(Cl)cc2)cc1`, the Ki amounted to 8 nM. The result for `Brc1ccc(/C=C(\Cn2ccnn2)c2ccc(Br)cc2)cc1` reads 24 nM; that for `Clc1ccc(/C=C(/Cn2ccnn2)c2ccc(Cl)cc2)cc1`, 97 nM; that for `Brc1ccc(/C=C(/Cn2ccnn2)c2ccc(Br)cc2)cc1`, 450 nM. For `Clc1ccc(/C(=C\c2ccccc2)Cn2ccnn2)cc1`, affinity was put at a Ki of 81 nM.

The molecule `Brc1ccc(/C(=C/c2ccccc2)Cn2ccnn2)cc1` yielded a Ki of 74 nM. Consider `C(=C(\Cn1cncn1)c1ccccc1)/c1ccccc1`, for which the affinity corresponds to a Ki of 79 nM. The result for `C(=C(/Cn1cncn1)c1ccccc1)/c1ccccc1` reads 32 nM; that for `Clc1ccc(/C(=C/c2ccccc2)Cn2ccnn2)cc1`, 57 nM; that for `Brc1ccc(/C(=C\c2ccccc2)Cn2ccnn2)cc1`, 125 nM.

Molecule `c1ccc(CC(Cn2ccnn2)c2ccccc2)cc1` (stereo unspecified) displayed a Ki of 290 nM.
